Results on 29 compounds are retold here after patent publication US6608069B1, “Phenyl xanthine derivatives” (SmithKline Beecham Corporation, priority 1998, dated 2003).

What is called IC50 is the concentration at which inhibition is half-maximal. By melting point is commonly meant the temperature of the solid-liquid transition.

Each structure is given as a SMILES string. Where a name gives a salt, the structure may show the parent alone.

The first data set deals with cytokine-stimulated human umbilical vein endothelial cells. The data set is described as follows: Cell Adhesion Assay: adherence of fluorescently-labelled leukocytes to endothelial cell monolayers. It is filed as cell-based. Conditions: inhibition of cytokine-stimulated adhesion minus basal adhesion; calcein-AM labelled leukocytes on HUVEC monolayers. Summed up:
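HUVEC monolayers were stimulated with cytokine, and adhesion of calcein-AM-labelled leukocytes was quantified by fluorescence. Inhibition was calculated on cytokine-stimulated adhesion after subtracting basal adhesion of unstimulated cells.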
Regarding `COCCOCCOCCOCCOCCOCCOCCOCCOCCNC(=O)/C=C/c1ccc(-c2nc3c(=O)n(Cc4ccccc4)c(=O)n(Cc4ccccc4)c3[nH]2)cc1` [Example 70, (E)-4-[1,3-bis(benzyl)-1,2,3,6-tetrahydro-2,6-dioxo-9H-purin-8-y]cinnamic Acid Nonaethylene Glycol Methyl Ether Amide], the IC50 is over 1000 nM.
On the same count and under the same terms, next, `COCCOCCOCCOCCOCCOCCOCCOCCOCCNC(=O)c1ccc(-c2nc3c(c(=O)n(CC4CCCCC4)c(=O)n3CC3CCCCC3)n2C)cc1` [Example 94, 4-(1,3-Bis(cyclohexylmethyl)-2,3,6,7-tetrahydro-2,6-dioxo-7-methyl-1H-purin-8-yl)benzoic Acid Nonaethylene Glycol Methyl Ether Amide]: 220 ± 87 nM; `COCCOCCOCCOCCOCCOCCOCCOCCOCCNC(=O)/C=C/c1ccc(-c2nc3c(=O)n(CC4CCCC4)c(=O)n(CC4CCCC4)c3[nH]2)cc1` [Example 71, (E)-4-(1,3-bis(cyclopentylmethyl)-1,2,3,6-tetrahydro-2,6-dioxo-9H-purin-8-yl)cinnamic Acid Nonaethylene Glycol Methyl Ether Amide]: 240 ± 200 nM.
Still for that read-out and setting: next, `COCCOCCOCCN(CCOCCOCCOC)C(=O)/C=C/c1ccc(-c2nc3c(=O)n(CC4CCCCC4)c(=O)n(CC4CCCCC4)c3[nH]2)cc1` [Example 95, (E)-4-(1,3-bis(cyclohexylmethyl)-1,2,3,6-tetrahydro-2,6-dioxo-9H-purin-8-yl)cinnamic Acid N,N-Bis Triethylene Glycol Methyl Ether Amide]: 1700 ± 690 nM; `COCCOCCOCCOCCOCCOCCOCCOCCOCCOC(=O)c1ccc(-c2nc3c(c(=O)n(CC4CCCCC4)c(=O)n3CC3CCCCC3)n2C)cc1` [Example 89, 4-(1,3-Bis(cyclohexylmethyl)-2,3,6,7-tetrahydro-2,6-dioxo-7-methyl-1H-purin-8-yl)benzoic Acid Nonaethylene Glycol Methyl Ether Ester]: 38 ± 18 nM.
As to `COCCOCCOCCOCCOCCOCCOCCOCCOCCOC(=O)/C=C/c1ccc(-c2nc3c(=O)n(CC4CCC4)c(=O)n(CC4CCC4)c3[nH]2)cc1` [Example 61, (E)-4-(1,3-bis(cyclobutylmethyl)-1,2,3,6-tetrahydro-2,6-dioxo-9H-purin-8-yl)cinnamic Acid Nonaethylene Glycol Methyl Ether Ester], the IC50 is 11 ± 4 nM.
With `COCCOCCOCCOCCOCCOCCOCCOCCOCCOC(=O)/C=C/c1ccc(-c2nc3c(c(=O)n(CC4CCCCC4)c(=O)n3CC3CCCCC3)n2CC(=O)c2ccccc2)cc1` [Example 78, (E)-4-(1,3-Bis(cyclohexylmethyl)-2,3,6,7-tetrahydro-2,6-dioxo-7-(2-oxo-2-phenylethyl)-1H-purin-8-yl)cinnamic Acid Nonaethylene Glycol Methyl Ether Ester], the IC50 is 0.1 ± 0.09 nM.
On the same count and under the same terms, the result for `COCCOCCOCCOC(=O)/C=C/c1ccc(-c2nc3c(c(=O)n(CC4CCCCC4)c(=O)n3CC3CCCCC3)n2CCOCCOCCOC)cc1` [Example 97] reads over 1000 nM.
The same measure, in the same setting: the result for `COCCOCCOCCOCCOCCOCCOCCOC(=O)/C=C/c1ccc(-c2nc3c(c(=O)n(CC4CCCCC4)c(=O)n3CC3CCCCC3)n2C)cc1` [Example 111, (E)-4-(1,3-Bis(cyclohexylmethyl)-2,3,6,7-tetrahydro-2,6-dioxo-7-methyl-1H-purin-8-yl)cinnamic Acid Heptaethylene Glycol Methyl Ether Ester] reads under 0.1 nM.
Take `COCCOCCOCCOCCOCCOCCOCCOCCOCCOC(=O)/C=C/c1ccc(-c2nc3c(=O)n(Cc4cccc(F)c4)c(=O)n(Cc4cccc(F)c4)c3[nH]2)cc1` [Example 53, (E)-4-(1,3-bis(3-fluorobenzyl)-1,2,3,6-tetrahydro-2,6-dioxo-9H-purin-8-yl)cinnamic Acid Nonaethylene Glycol Methyl Ether Ester]: the IC50 was 39 ± 13 nM.
Still for that read-out and setting: the result for `COCCOCCOCCOCCOCCOCCOCCOCCOCCN(C)C(=O)c1ccc(-c2nc3c(=O)n(CC4CCCCC4)c(=O)n(CC4CCCCC4)c3[nH]2)cc1` [Example 76, 4-(1,3-Bis(cyclohexylmethyl)-1,2,3,6-tetrahydro-2,6-dioxo-9H-purin-8-yl) benzoic Acid-N-methyl-Nonaethylene Glycol Methyl Ether Amide] reads 350 ± 130 nM; that for `COCCOCCOCCOCCOCCOCCOCCOCCOCCOC(=O)/C=C/c1ccc(-c2nc3c([nH]2)c(=O)n(CC2CCCCC2)c(=O)n3CC2CCCCC2)s1` [Example 98, (E)-3-[5-[1,3-bis(cyclohexylmethyl)-2,3,6,7-tetrahydro-2,6-dioxo-1H-purin-8-yl]-2-thienyl]-2-propenoic Acid Nonaethylene Glycol Methyl Ether Ester], 37 ± 23 nM; that for `CCCCCCCCCCCCOCCOCCOCCOCCOCCOCCOC(=O)/C=C/c1ccc(-c2nc3c(=O)n(CC4CCCCC4)c(=O)n(CC4CCCCC4)c3[nH]2)cc1` [Example 59, (E)-4-(1,3-bis(cyclohexylmethyl)-1,2,3,6-tetrahydro-2,6-dioxo-9H-purin-8-yl)cinnamic Acid Hexaethylene Glycol dodecyl Ether Ester], 57 ± 24 nM.

The same data set, now with this note: inhibition of cytokine-stimulated adhesion minus basal adhesion; calcein-AM labelled leukocytes on HUVEC monolayers; Hydrochloride.
Take `COCCOCCOCCOCCOCCOCCOCCNCc1ccc(-c2nc3c(=O)n(CC4CCCCC4)c(=O)n(CC4CCCCC4)c3[nH]2)cc1` [Example 107, 4-[1,3-Bis(cyclohexylmethyl)-1,2,3,6-tetrahydro-2,6-dioxo-9H-purin-8-yl]benzylamine N-Heptaethylene Glycol Methyl Ether Hydrochloride]: the IC50 was 39 ± 19 nM.

Tested on in the next data set: not given
Assay: not given
Details: not given
Regarding `O=C(O)/C=C/c1ccc(-c2nc3c(=O)n(CC4CC4)c(=O)n(CC4CC4)c3[nH]2)cc1` [Example 5, (E)-4-(1,3-bis(cyclopropylmethyl)-1,2,3,6-tetrahydro-2,6-dioxo-9H-purin-8-yl)cinnamic Acid], the melting point was over 250 °C.
Same read-out and setting: the result for `O=C(O)/C=C/c1ccc(-c2nc3c(=O)n(CCc4ccccc4)c(=O)n(CCc4ccccc4)c3[nH]2)cc1` [Example 22, (E)-4-(1,3-bis(2-phenylethyl)-1,2,3,6-tetrahydro-2,6-dioxo-9H-purin-8-yl)cinnamic Acid] reads over 350 °C; that for `Cn1c(=O)c2nc(-c3ccc(/C=C/C(=O)O)cc3)[nH]c2n(C)c1=O` (hydrate or solvate) [Example 14, (E)-4-(1,3-bis(methyl)-1,2,3,6-tetrahydro-2,6-dioxo-9H-purin-8-yl)cinnamic Acid], over 350 °C.
Consider `O=C(O)/C=C/c1ccc(-c2nc3c(=O)n(CCC4CCCCC4)c(=O)n(CCC4CCCCC4)c3[nH]2)cc1` [Example 8, (E)-4-(1,3-bis(2-cyclohexylethyl)-1,2,3,6-tetrahydro-2,6-dioxo-9H-purin-8-yl)cinnamic Acid], for which the melting point was over 250 °C.
Still for that read-out and setting: next, `O=C(O)/C=C/c1ccc(-c2nc3c(=O)n(CC4CCCCCC4)c(=O)n(CC4CCCCCC4)c3[nH]2)cc1` (hydrate or solvate) [Example 7, (E)-4-(1,3-bis(cycloheptylmethyl)-1,2,3,6-tetrahydro-2,6-dioxo-9H-purin-8-yl)cinnamic Acid]: over 250 °C; `O=C(O)/C=C/c1ccc(-c2nc3c(=O)n(CC4CCCC4)c(=O)n(CC4CCCC4)c3[nH]2)cc1` [Example 3, (E)-4-(1,3-bis(cyclopentylmethyl)-1,2,3,6-tetrahydro-2,6-dioxo-9H-purin-8-yl)cinnamic Acid]: over 300 °C.
In turn, `CC(C)Cn1c(=O)c2nc(-c3ccc(/C=C/C(=O)O)cc3)[nH]c2n(CC(C)C)c1=O` [Example 10, (E)-4-(1,3-bis(2-methylpropyl)-1,2,3,6-tetrahydro-2,6-dioxo-9H-purin-8-yl)cinnamic Acid] returned a melting point of over 300 °C.
The compound `O=C(O)/C=C/c1ccc(-c2nc3c(=O)n(Cc4ccccc4)c(=O)n(Cc4ccccc4)c3[nH]2)cc1` [Example 2, (E)-4-(1,3-bis(benzyl)-1,2,3,6-tetrahydro-2,6-dioxo-9H-purin-8-yl)cinnamic Acid] had a melting point of over 300 °C.
Still for that read-out and setting: the result for `O=C(O)/C=C/c1ccc(-c2nc3c(=O)n(Cc4ccccc4)c(=S)n(Cc4ccccc4)c3[nH]2)cc1` [Example 17, (E)-4-(1,3-bis(benzyl)-1,2,3,6-tetrahydro-2-thioxo-6-oxo-9H-purin-8-yl)cinnamic Acid] reads over 350 °C; that for `CCCn1c(=O)c2nc(-c3cccc(/C=C/C(=O)O)c3)[nH]c2n(CCC)c1=O` (hydrate or solvate) [Example 26, (E)-3-[1,3-bis(propyl)-1,2,3,6-tetrahydro-2,6-dioxo-9H-purin-8-yl]cinnamic Acid], over 350 °C.
The same measure, in the same setting: the result for `O=C(O)/C=C/c1ccc(-c2nc3c(=O)n(-c4ccccc4)c(=O)n(-c4ccccc4)c3[nH]2)cc1` [Example 9, (E)-4-(1,3-bis(phenyl)-1,2,3,6-tetrahydro-2,6-dioxo-9H-purin-8-yl)cinnamic Acid] reads over 375 °C.
In the case of `O=C(O)/C=C/c1ccc(-c2nc3c(=O)n(Cc4cccc(F)c4)c(=O)n(Cc4cccc(F)c4)c3[nH]2)cc1` [Example 20, (E)-4-(1,3-bis(3-fluorobenzyl)-1,2,3,6-tetrahydro-2,6-dioxo-9H-purin-8-yl)cinnamic Acid], the melting point was over 300 °C.
Turning to `O=C(O)/C=C/c1cccc(-c2nc3c(=O)n(CC4CCCCC4)c(=O)n(CC4CCCCC4)c3[nH]2)c1` (hydrate or solvate) [Example 31, (E)-3-[1,3-Bis(cyclohexylmethyl)-1,2,3,6-tetrahydro-2,6-dioxo-9H-purin-8-yl]cinnamic Acid], the melting point was over 350 °C.
Regarding `O=C(O)/C=C/c1ccc(-c2nc3c(=O)n(CC4CC5CCC4C5)c(=O)n(CC4CC5CCC4C5)c3[nH]2)cc1` (centres unmarked) [Example 12, (E)-4-(1,3-bis(bicyclo(2.2.1)hept-2-ylmethyl)-1,2,3,6-tetrahydro-2,6-dioxo-9H-purin-8-yl)cinnamic Acid], the melting point is over 250 °C.
For the compound `O=C(O)/C=C/c1cccc(-c2nc3c(=O)n(Cc4ccccc4)c(=O)n(Cc4ccccc4)c3[nH]2)c1` (hydrate or solvate) [Example 13, (E)-3-(1,3-bis(benzyl)-1,2,3,6-tetrahydro-2,6-dioxo-9H-purin-8-yl)cinnamic Acid], the melting point was over 350 °C.
